Test results reported in patent US12115373B2, “Methods for reducing the risk of strokes by pharmacotherapy to reduce the number and duration of atrial fibrillations” (Xyra, LLC, priority 2022, dated 2024).

Tests used:
[1] = tested on: patients with paroxysmal or persistent AFib; assay: Clinical trial evaluation of budiodarone, 6 patients, pacemaker monitoring, two-week dose periods (Example 2); format: in vivo; set-up: Duration of episodes, Mean / Duration of sinus rhythm, Mean: unit not given here; details: for # of AFib episodes, Mean / Duration of episodes, Mean / Duration of sinus rhythm, Mean / Longest AFib Episode - hrs: two-week period, 6 patients
Protocol: This example is a clinical trial evaluation of budiodarone in treating 6 patients with paroxysmal or persistent AFib who previously evidenced episodes of long duration AFib (greater than 24 hours). In this example, the patients' heart rhythm was continuously monitored over a two-week period with a pacemaker, and were treated with different doses of budiodarone. The purpose of this example is to establish whether budiodarone reduces long duration AFib lasting more than 24 hours.

[2] = tested on: patients with either paroxysmal or persistent AFib; assay: Clinical trial: episodes of long duration AFib (>5 hrs), pacemaker monitoring (Example 4); format: in vivo; details: for Episodes of AFib > 5 hrs: Duration, percentage relative to the baseline / Episodes of AFib > 5 hrs: Duration / Episodes of AFib > 5 hrs: Number: 2 week period; for Episodes of AFib > 5 hrs: Duration / Episodes of AFib > 5 hrs: Number: 6 patients
Protocol: This example is a clinical trial evaluation of budiodarone in treating 6 patients with either paroxysmal or persistent AFib who previously evidenced episodes of long duration AFib (greater than 5 hrs). In this example, the patients' heart rhythms were continuously monitored over a twelve-week period with a pacemaker (surgically invasive procedure) and were treated with different doses (2 weeks each) of budiodarone. In addition, during this trial, the patients were under continuous monitoring and constant clinician supervision.
The purpose of this example is to establish whether budiodarone reduces long duration AFib lasting more than 5 hours in a clinical study setting using a pacemaker to evaluate the heart rhythm.
“Number” indicates the number of long duration episodes of AFib having a duration of greater than 5 hours. “Duration” indicates the amount of time during the 2 week period spent in the greater than 5 hour duration AFib, indicated in hours and a percentage relative to the baseline measurement. […] Finally, the 800 mg bid performed best. In all doses, the reduction in episodes of AFib of greater than 5 hours were above 85% and the corresponding reduction in AFib burden was above 90%.

With `CC[C@H](C)OC(=O)Cc1oc2ccccc2c1C(=O)c1cc(I)c(OCCN(CC)CC)c(I)c1` [budiodarone, (S)-sec-butyl2-(3-(4-(2-(diethylamino)ethoxy)-3,5-diiodobenzoyl)benzofuran-2-yl)acetate] the “# of AFib episodes, Mean” value ([1]; 200 mg bid) was 31, the “Duration of episodes, Mean” value ([1]; 200 mg bid) was 1.7 and the “Duration of sinus rhythm, Mean” value ([1]; 200 mg bid) was 131. The “Longest AFib Episode - hrs” value ([1]; 200 mg bid) was 7 h, the “# of AFib episodes, Mean” value ([1]; 400 mg bid) was 37 and the “Duration of episodes, Mean” value ([1]; 400 mg bid) was 0.6. For the same compound, the “Duration of sinus rhythm, Mean” value ([1]; 400 mg bid) was 48, the “Longest AFib Episode - hrs” value ([1]; 400 mg bid) was 13 h and the “# of AFib episodes, Mean” value ([1]; 600 mg bid) was 42. The “Duration of episodes, Mean” value ([1]; 600 mg bid) was 0.1, the “Duration of sinus rhythm, Mean” value ([1]; 600 mg bid) was 103 and the “Longest AFib Episode - hrs” value ([1]; 600 mg bid) was 7 h. For the same compound, the “# of AFib episodes, Mean” value ([1]; 800 mg bid) was 24, the “Duration of episodes, Mean” value ([1]; 800 mg bid) was 0.5 and the “Duration of sinus rhythm, Mean” value ([1]; 800 mg bid) was 42. For the same compound, the “Longest AFib Episode - hrs” value ([1]; 800 mg bid) was 5 h, the “episodes of long duration AFib lasting more than 24 hours eliminated as compared to Baseline” value ([1]; all dose levels (200-800 mg bid)) was “over 70%” and the “reduction in AFib burden (number of episodes over a 2-week period times the average duration)” value ([1]; vs baseline, dose levels 200-800 mg bid) was “more than 64%”. The “Episodes of AFib > 5 hrs: Duration, percentage relative to the baseline” value (shortened to “Episodes … percentage relative to the baseline”) ([2]; 200 mg bid) was “(3.5%)”, the “Episodes of AFib > 5 hrs: Duration” value ([2]; 200 mg bid) was 17 h and the “Episodes of AFib > 5 hrs: Number” value ([2]; 200 mg bid) was 3. The “Episodes … percentage relative to the baseline” value ([2]; 400 mg bid) was “(7.7%)”, the “Episodes of AFib > 5 hrs: Duration” value ([2]; 400 mg bid) was 38 h and the “Episodes of AFib > 5 hrs: Number” value ([2]; 400 mg bid) was 4. The “Episodes … percentage relative to the baseline” value ([2]; 600 mg bid) was “(2.8%)”, the “Episodes of AFib > 5 hrs: Duration” value ([2]; 600 mg bid) was 14 h and the “Episodes of AFib > 5 hrs: Number” value ([2]; 600 mg bid) was 2. The “Episodes … percentage relative to the baseline” value ([2]; 800 mg bid) was “(1%)”, the “Episodes of AFib > 5 hrs: Duration” value ([2]; 800 mg bid) was 5 h and the “Episodes of AFib > 5 hrs: Number” value ([2]; 800 mg bid) was 1. For the same compound, the “corresponding reduction in AFib burden (episodes > 5 hours)” value ([2]; in all doses (200-800 mg bid)) was “above 90%” and the “reduction in episodes of AFib of greater than 5 hours” value ([2]; in all doses (200-800 mg bid)) was “above 85%”.
